Tested on: colorectal tissue transcripts
Assay: SAGE of normal, adenoma and cancer colorectal tissue (transcript tag counts)
Design: species or system human
Text: In an effort to identify potential molecular markers of early colorectal tumors, we have here analyzed gene expression in benign and malignant colorectal tumors in an unbiased and comprehensive fashion. We used SAGE to analyze global gene expression in normal, benign and malignant colorectal tissue. SAGE is a gene expression profiling method that associates individual mRNA transcripts with 15-base tags derived from specific positions near their 3′ termini (3). The abundance of each tag provides a quantitative measure of the transcript level present within the mRNA population studied. SAGE is not dependent on pre-existing databases of expressed genes, and therefore provides an unbiased view of gene expression profiles. For the current study, SAGE libraries derived from two samples of normal colonic epithelium, two colorectal adenomas, and two colorectal cancers were analyzed.
SAGE. For the initial SAGE^3 of benign tumors, fresh adenomas were obtained from surgical specimens derived from FAP patients. Adenomas from FAP patients were employed because of the ready availability of small lesions and the certainty of inactivation of the APC pathway which initiates the formation of the majority of sporadic tumors. After histopathological verification of the neoplastic nature of the lesion (>70% neoplastic cells), total RNA was isolated by solubilizing the tissue in RNAgents Lysis Buffer (Promega, Madison, Wis.) followed by ultracentrifugation over a cesium chloride gradient. mRNA selection was performed from the purified total RNA using oligo(dT) cellulose (Life Technologies, Gaithersburg, Md.). […] Tags were extracted from the raw sequence data and, after excluding repeated ditags, linker sequences, and tags from the polyrnorphic Major Histocompatibility loci, the resulting tag libraries were compared and statistical analysis performed using SAGE software, version 4.0. Data from the libraries are publicly available at the Uniform Resource Locator (URL) address for the http file type found on the www host server that has a domain name of ncbi.nlm.nih.gov, and a path to the directory SAGE, and detailed SAGE protocols are available at the Uniform Resource Locator (URL) address for the http file type found on the www host server that has a domain name of sagenet.org, and file name of sage_protocol.htn.

[1] = normal colorectal tissue library 1
[2] = normal colorectal tissue library 2

Sequence | AD1 (SAGE tag count) (SAGE library AD1) | AD2 (SAGE tag count) (SAGE library AD2) | CA1 (SAGE tag count) (SAGE library CA1) | CA2 (SAGE tag count) (SAGE library CA2) | NC1 (SAGE tag count) (SAGE library NC1) | NC2 (SAGE tag count) (SAGE library NC2) | AD1 (SAGE tag count) (adenoma library 1) | AD2 (SAGE tag count) (adenoma library 2) | CA1 (SAGE tag count) (cancer library 1) | CA2 (SAGE tag count) (cancer library 2) | NC1 (SAGE tag count) [1] | NC2 (SAGE tag count) [2]
GTCATCACCA (chemistry not fully specified; the letters are possibly those of the target site) | 0 | 0 | 0 | 0 | 35 | 22 | – | – | – | – | – | –
GCAGGGCCTC (chemistry not fully specified) | 41 | 69 | 39 | 51 | 128 | 165 | – | – | – | – | – | –
GTATTGGGGC (chemistry not fully specified) | 0 | 0 | 0 | 0 | 5 | 7 | – | – | – | – | – | –
TGCAGCGCCT (chemistry not fully specified; the letters are possibly those of the target site) | – | – | – | – | – | – | 1 | 1 | 1 | 1 | 16 | 9
CTTATGGTCC (chemistry not fully specified) | 0 | 1 | 1 | 0 | 36 | 11 | – | – | – | – | – | –
ACTGTGGCGG (chemistry not fully specified) | 9 | 12 | 9 | 4 | 17 | 34 | – | – | – | – | – | –
GCTGGCACAT (chemistry not fully specified) | 1 | 0 | 6 | 0 | 15 | 14 | – | – | – | – | – | –
TTCTGGTGCG (chemistry not fully specified) | – | – | – | – | – | – | 0 | 0 | 1 | 0 | 8 | 2
TGGCCATCTG (chemistry not fully specified) | – | – | – | – | – | – | 8 | 7 | 3 | 4 | 30 | 24
GCCCACACAG (chemistry not fully specified) | 1 | 1 | 0 | 0 | 15 | 0 | – | – | – | – | – | –
ATTTCAAGAT (chemistry not fully specified) | 0 | 2 | 1 | 0 | 35 | 21 | – | – | – | – | – | –
GATCCCAACT (chemistry not fully specified) | 5 | 7 | 1 | 1 | 9 | 29 | – | – | – | – | – | –
ATGACGCTCA (chemistry not fully specified) | 6 | 5 | 3 | 4 | 22 | 18 | – | – | – | – | – | –
CGCTGTGGGG (chemistry not fully specified) | 19 | 8 | 8 | 6 | 58 | 53 | – | – | – | – | – | –
TAGGATGGGG (chemistry not fully specified) | – | – | – | – | – | – | 4 | 7 | 6 | 1 | 24 | 30
TCAGCTGCAA (chemistry not fully specified) | – | – | – | – | – | – | 0 | 0 | 9 | 3 | 56 | 16

— US8029764B2, “Methods for detection of colorectal cancer” (The Johns Hopkins University, priority 2001, dated 2011)
